Measurements reported in patent US8501446B2 (Vertex Pharmaceuticals Incorporated, priority 2004, dated 2013).

Key:
Type in all cases: biochemical
[1] = target: T1, JAK3 (Homo sapiens, UniProt P52333); assay: JAK3 inhibition assay (standard radioactive enzyme assay); settings: average Ki if more than one value determined
T1 sequence (P52333 1-1124): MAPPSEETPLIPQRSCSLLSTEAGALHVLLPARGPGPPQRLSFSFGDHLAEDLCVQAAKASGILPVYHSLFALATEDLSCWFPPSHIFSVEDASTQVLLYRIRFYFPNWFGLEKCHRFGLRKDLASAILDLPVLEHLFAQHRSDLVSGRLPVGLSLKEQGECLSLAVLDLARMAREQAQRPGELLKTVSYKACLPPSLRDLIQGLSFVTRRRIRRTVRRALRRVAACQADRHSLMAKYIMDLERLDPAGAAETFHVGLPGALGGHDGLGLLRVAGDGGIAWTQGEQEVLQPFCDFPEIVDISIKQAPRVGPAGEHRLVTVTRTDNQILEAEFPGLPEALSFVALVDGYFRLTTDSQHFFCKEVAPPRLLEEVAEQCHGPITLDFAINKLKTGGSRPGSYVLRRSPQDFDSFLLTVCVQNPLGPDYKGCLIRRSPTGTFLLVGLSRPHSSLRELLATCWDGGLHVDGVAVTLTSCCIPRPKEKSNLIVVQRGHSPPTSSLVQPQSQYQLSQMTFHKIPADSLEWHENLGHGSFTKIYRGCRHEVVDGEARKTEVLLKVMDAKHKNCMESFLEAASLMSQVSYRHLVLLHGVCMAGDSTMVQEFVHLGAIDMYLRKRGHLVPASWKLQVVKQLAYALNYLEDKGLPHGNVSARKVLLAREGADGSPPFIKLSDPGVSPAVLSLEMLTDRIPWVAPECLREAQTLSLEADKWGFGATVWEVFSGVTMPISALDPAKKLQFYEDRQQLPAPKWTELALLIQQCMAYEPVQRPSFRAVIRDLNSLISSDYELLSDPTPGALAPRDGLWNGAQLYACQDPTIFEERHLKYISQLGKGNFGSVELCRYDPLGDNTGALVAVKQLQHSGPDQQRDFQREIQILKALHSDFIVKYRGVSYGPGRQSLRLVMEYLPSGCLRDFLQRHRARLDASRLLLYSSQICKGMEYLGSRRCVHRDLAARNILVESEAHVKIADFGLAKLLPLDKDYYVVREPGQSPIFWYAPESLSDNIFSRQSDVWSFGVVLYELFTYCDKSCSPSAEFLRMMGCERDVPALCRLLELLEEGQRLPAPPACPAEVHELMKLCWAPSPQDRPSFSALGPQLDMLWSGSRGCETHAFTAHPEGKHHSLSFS
Protocol: (§1) Compounds were screened for their ability to inhibit JAK3 using a standard radioactive enzyme assay. 1.5 μL/well of a DMSO stock containing serial dilutions of a compound of the present invention (concentrations ranging from 667 μM to 46 nM) was placed in a 96 well polycarbonate plate. 50 μL per well of kinase buffer (100 mM HEPES (pH 7.4), 10 mM MgCl2, 25 mM NaCl, 1 mM DTT, and 0.01% bovine serum albumin (BSA)) containing 2 μM poly(Glu)4Tyr and 10 μM ATP was also added to the plate. To initiate the reaction, 50 μL kinase buffer containing 2 nM JAK3 enzyme was added. Final ATP concentration was 5 μM [γ-^33P] ATP (200 μCi ^33P ATP/μmol ATP (Perkin Elmer, Cambridge, Mass.). After 20 minutes at room temperature (25° C.), the reaction was stopped by adding 50 μL 20% trichloroacetic acid (TCA)/0.4 mM ATP to each well. The entire content of each well was then transferred to a 96 well glass fiber filter plate using a TomTek Cell Harvester. After washing, 60 μL scintillation fluid was added and ^33P incorporation detected using a Perkin Elmer TopCount. After removing mean background values for all of the data points the data was fit using Prism software to obtain a Ki(app). Inhibition of JAK2 was measured as above except that final poly(Glu)4Tyr concentration was 15 μM and final ATP concentration was 12 μM.

[2] = target: JAK2 (Homo sapiens, UniProt O60674); assay: JAK2 inhibition assay (radioactive enzyme assay, as for JAK3); settings: average Ki if more than one value determined
Chain of JAK2 (O60674 whole entry, species assumed): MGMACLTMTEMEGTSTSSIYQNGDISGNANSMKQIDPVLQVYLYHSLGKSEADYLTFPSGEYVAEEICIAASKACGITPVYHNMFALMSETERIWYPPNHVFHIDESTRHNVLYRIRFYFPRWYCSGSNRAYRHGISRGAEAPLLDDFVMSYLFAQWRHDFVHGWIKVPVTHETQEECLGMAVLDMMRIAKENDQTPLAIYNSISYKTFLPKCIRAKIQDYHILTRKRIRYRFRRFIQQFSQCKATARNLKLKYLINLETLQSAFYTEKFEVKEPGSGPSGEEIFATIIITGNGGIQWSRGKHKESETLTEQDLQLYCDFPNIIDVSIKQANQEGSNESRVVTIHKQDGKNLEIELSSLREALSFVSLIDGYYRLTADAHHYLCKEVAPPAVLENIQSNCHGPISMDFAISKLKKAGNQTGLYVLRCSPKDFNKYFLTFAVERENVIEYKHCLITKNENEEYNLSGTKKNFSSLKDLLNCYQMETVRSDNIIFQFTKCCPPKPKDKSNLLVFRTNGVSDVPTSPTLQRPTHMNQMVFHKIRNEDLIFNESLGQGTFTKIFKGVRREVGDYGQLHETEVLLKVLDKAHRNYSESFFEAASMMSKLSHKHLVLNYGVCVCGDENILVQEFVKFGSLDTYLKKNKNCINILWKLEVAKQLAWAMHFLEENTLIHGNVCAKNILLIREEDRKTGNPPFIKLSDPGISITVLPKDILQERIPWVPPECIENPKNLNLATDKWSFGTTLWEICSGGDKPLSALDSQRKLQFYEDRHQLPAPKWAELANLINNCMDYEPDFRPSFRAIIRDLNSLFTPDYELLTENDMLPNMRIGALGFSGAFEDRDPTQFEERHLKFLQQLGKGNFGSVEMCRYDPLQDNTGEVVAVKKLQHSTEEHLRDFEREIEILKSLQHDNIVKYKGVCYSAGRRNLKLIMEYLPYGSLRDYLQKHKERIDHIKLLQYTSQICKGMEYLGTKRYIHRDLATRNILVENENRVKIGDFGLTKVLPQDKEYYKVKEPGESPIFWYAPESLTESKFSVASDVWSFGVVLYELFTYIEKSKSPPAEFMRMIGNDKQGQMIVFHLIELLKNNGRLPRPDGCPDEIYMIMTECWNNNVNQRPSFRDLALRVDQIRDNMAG
Protocol: as §1

[3] = target: T2, ROCK I (AA 6-553) (Homo sapiens, UniProt Q13464); assay: ROCK inhibition assay, standard coupled enzyme system ("Enzyme"); settings: enzyme-linked assay
T2 construct: ROCK I (AA 6-553)
T2 sequence (Q13464 6-553, species assumed): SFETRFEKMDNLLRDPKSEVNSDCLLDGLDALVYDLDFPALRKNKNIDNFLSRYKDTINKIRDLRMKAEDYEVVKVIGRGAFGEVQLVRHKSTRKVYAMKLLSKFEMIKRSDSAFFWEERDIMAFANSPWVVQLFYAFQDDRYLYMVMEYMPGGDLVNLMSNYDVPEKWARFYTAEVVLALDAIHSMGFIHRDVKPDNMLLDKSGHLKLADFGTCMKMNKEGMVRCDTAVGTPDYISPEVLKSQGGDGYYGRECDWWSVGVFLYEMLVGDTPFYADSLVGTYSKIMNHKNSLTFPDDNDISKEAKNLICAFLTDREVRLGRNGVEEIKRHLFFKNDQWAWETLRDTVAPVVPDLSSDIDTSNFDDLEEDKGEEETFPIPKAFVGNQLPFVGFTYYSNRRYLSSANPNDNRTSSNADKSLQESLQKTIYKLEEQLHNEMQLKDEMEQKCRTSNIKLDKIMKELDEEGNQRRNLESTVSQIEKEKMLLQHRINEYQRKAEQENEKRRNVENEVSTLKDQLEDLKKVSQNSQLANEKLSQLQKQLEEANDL
Protocol: Compounds were screened for their ability to inhibit ROCK I (AA 6-553) activity using a standard coupled enzyme system (Fox et al. (1998) Protein Sci. 7, 2249). Reactions were carried out in a solution containing 100 mM HEPES (pH 7.5), 10 mM MgCl2, 25 mM NaCl, 2 mM DTT and 1.5% DMSO. Final substrate concentrations in the assay were 45 μM ATP (Sigma Chemicals, St Louis, Mo.) and 200 μM peptide (American Peptide, Sunnyvale, Calif.). Reactions were carried out at 30° C. and 45 nM ROCK L. Final concentrations of the components of the coupled enzyme system were 2.5 mM phosphoenolpyruvate, 350 μM NADH, 30 μg/ml pyruvate kinase and 10 μg/ml lactate dehydrogenase.

[4] = target: T3, full length Aurora-A (AA 1-403) (Homo sapiens, UniProt O14965); assay: Aurora-A inhibition assay, standard coupled enzyme system; settings: average Ki if more than one value determined
T3 construct: full length Aurora-A (AA 1-403)
T3 sequence (O14965 1-403): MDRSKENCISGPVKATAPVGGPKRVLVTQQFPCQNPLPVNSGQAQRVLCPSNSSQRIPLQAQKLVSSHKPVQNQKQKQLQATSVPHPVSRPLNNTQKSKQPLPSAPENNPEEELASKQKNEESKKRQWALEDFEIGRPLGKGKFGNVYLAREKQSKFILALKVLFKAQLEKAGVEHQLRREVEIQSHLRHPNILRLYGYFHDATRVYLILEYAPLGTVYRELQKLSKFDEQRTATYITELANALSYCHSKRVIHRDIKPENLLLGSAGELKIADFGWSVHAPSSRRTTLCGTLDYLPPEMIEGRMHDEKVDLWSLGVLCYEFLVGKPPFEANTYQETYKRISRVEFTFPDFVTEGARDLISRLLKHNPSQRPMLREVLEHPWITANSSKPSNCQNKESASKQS
Protocol: Compounds were screened for their ability to inhibit full length Aurora-A (AA 1-403) activity using a standard coupled enzyme system (Fox et al., Protein Sci. 7, pp. 2249 (1998)). Reactions were carried out in a solution containing 100 mM HEPES (pH 7.5), 10 mM MgCl2, 25 mM NaCl, 300 μM NADH, 1 mM DTT and 3% DMSO. Final substrate concentrations in the assay were 200 μM ATP (Sigma Chemicals, St Louis, Mo.) and 800 μM peptide (LRRASLG, American Peptide, Sunnyvale, Calif.). Reactions were carried out at 30° C. and 35 nM Aurora-A. Final concentrations of the components of the coupled enzyme system were 2.5 mM phosphoenolpyruvate, 200 μM NADH, 60 μg/ml pyruvate kinase and 20 μg/ml lactate dehydrogenase.
An assay stock buffer solution was prepared containing all of the reagents listed above with the exception of ATP and the test compound of interest. The assay stock buffer solution (60 μl) was incubated in a 96 well plate with 2 μl of the test compound of interest at final concentrations spanning 0.002 μM to 30 μM at 30° C. for 10 min. Typically, a 12 point titration was conducted by preparing serial dilutions (from 1 mM compound stocks) with DMSO of the test compounds in daughter plates. The reaction was initiated by the addition of 5 μl of ATP (final concentration 200 μM). Rates of reaction were obtained using a Molecular Devices Spectramax plate reader (Sunnyvale, Calif.) over 10 min at 30° C. The Ki values were determined from the rate data as a function of inhibitor concentration using computerized nonlinear regression (Prism 3.0, Graphpad Software, San Diego, Calif.). Aurora-C activity was screened in a similar manner using Aurora-C protein. Aurora-B activity was screened using a radioactive assay, such as described in Examples 1 and 2, but using Aurora-B protein.

| Ki [1] | Ki [2] | Ki [3] | Ki [4] | SMILES |
| --- | --- | --- | --- | --- |
| 500 to 5000 nM | 500 to 5000 nM |  |  | CC(=O)N1[C@H](C)CN(c2cccc(-c3c[nH]c4ncc(C(=O)N5CCCCCC5)cc34)n2)C[C@@H]1C [Compound 55] |
| < 500 nM | < 500 nM |  |  | CC(=O)N1[C@H](C)CN(c2cccc(-c3c[nH]c4ncc(NC(=O)c5cccc(Cl)c5)cc34)n2)C[C@@H]1C [Compound 174] |
| < 500 nM | < 500 nM |  |  | O=C(O)c1ccc(-c2c[nH]c3ncc(Cl)cc23)cc1Cl [Compound 175] |
| < 500 nM | < 500 nM |  |  | N#Cc1ccc(-c2c[nH]c3ncc(Cl)cc23)cc1 [Compound 176] |
| < 500 nM | 500 to 5000 nM |  |  | Cc1cccc(-c2c[nH]c3ncc(Cl)cc23)c1 [Compound 185] |
| < 500 nM |  | 500 to 5000 nM |  | COc1cnc2[nH]cc(-c3ncc(F)c(N[C@@H](C)C(=O)NCC(F)(F)F)n3)c2c1 [Compound 204] |
| < 500 nM |  | 500 to 5000 nM |  | CCOc1cnc2[nH]cc(-c3cccc(N4C[C@@H](C)N(C(C)=O)[C@@H](C)C4)n3)c2c1 [Compound 205] |
| < 500 nM |  | 500 to 5000 nM |  | CC(=O)N1[C@H](C)CN(c2cccc(-c3c[nH]c4ncc(OC(C)C)cc34)n2)C[C@@H]1C [Compound 206] |
| < 500 nM |  | 500 to 5000 nM |  | C=C(C)COc1cnc2[nH]cc(-c3cccc(N4C[C@@H](C)N(C(C)=O)[C@@H](C)C4)n3)c2c1 [Compound 207] |
| < 500 nM |  | 500 to 5000 nM |  | CC(=O)N1[C@H](C)CN(c2cccc(-c3c[nH]c4ncc(OCCCN5CCOCC5)cc34)n2)C[C@@H]1C [Compound 208] |
| < 500 nM |  | 500 to 5000 nM |  | CC(=O)N1[C@H](C)CN(c2cccc(-c3c[nH]c4ncc(OCCOC(C)C)cc34)n2)C[C@@H]1C [Compound 209] |
|  |  | 500 to 5000 nM | < 500 nM | Fc1cnc(-c2c[nH]c3ncc(Cl)cc23)nc1NCC1CCOC1 (stereo not shown) [Compound 373] |
|  |  | 500 to 5000 nM | < 500 nM | CNC(=O)COc1cccc([C@H](C)Nc2nc(-c3c[nH]c4ncc(Cl)cc34)ncc2F)c1 [Compound 376] |
|  |  | 500 to 5000 nM | < 500 nM | C[C@H](Nc1nc(-c2c[nH]c3ncc(Cl)cc23)ncc1F)c1cccc(OCCCN(C)C)c1 [Compound 377] |
|  |  | 500 to 5000 nM | < 500 nM | C[C@H](Nc1nc(-c2c[nH]c3ncc(C#CCO)cc23)ncc1F)c1ccc(F)cc1 [Compound 378] |
|  |  | < 500 nM | < 500 nM | Fc1cnc(-c2c[nH]c3ncc(Cl)cc23)nc1NC[C@H]1CCNC1 [Compound 379] |

| Ki [1] | Ki [2] | Ki [3] | Ki [4] | SMILES |
| --- | --- | --- | --- | --- |
|  |  | < 500 nM | < 500 nM | Fc1cnc(-c2c[nH]c3ncc(Cl)cc23)nc1N[C@@H]1CCNC1 [Compound 381] |
|  |  | 500 to 5000 nM | < 500 nM | CC(=O)N1CCC(CNc2nc(-c3c[nH]c4ncc(Cl)cc34)ncc2F)CC1 [Compound 383] |
|  |  | 500 to 5000 nM | < 500 nM | COCC#Cc1cnc2[nH]cc(-c3ncc(F)c(N[C@@H](C)c4ccc(F)cc4)n3)c2c1 [Compound 384] |
|  |  | 500 to 5000 nM | < 500 nM | C[C@H](Nc1nc(-c2c[nH]c3ncc(Cl)cc23)ncc1F)C(=O)NCCS(C)(=O)=O [Compound 389] |
|  |  | 500 to 5000 nM | 500 to 5000 nM | C[C@H](Nc1nc(-c2c[nH]c3ncc(Cl)cc23)ncc1F)C(=O)NC1CCS(=O)(=O)C1 (stereo partly shown) [Compound 390] |
|  |  | 500 to 5000 nM | < 500 nM | COCCNC(=O)[C@H](C)Nc1nc(-c2c[nH]c3ncc(Cl)cc23)ncc1F [Compound 392] |
|  |  | 500 to 5000 nM | < 500 nM | CNC(=O)[C@H](CC(C)C)Nc1nc(-c2c[nH]c3ncc(Cl)cc23)ncc1F [Compound 393] |
|  |  | 500 to 5000 nM | < 500 nM | C[C@H](Nc1nc(-c2c[nH]c3ncc(C#N)cc23)ncc1F)c1ccc(F)cc1 [Compound 394] |
|  |  | 500 to 5000 nM | < 500 nM | COC(=O)c1cc(F)c(N[C@@H](C)c2ccc(F)cc2)nc1-c1c[nH]c2ncc(Cl)cc12 [Compound 396] |
|  |  | 500 to 5000 nM | < 500 nM | COC(=O)c1cc(F)c(-c2c[nH]c3ncc(Cl)cc23)nc1N[C@@H](C)c1ccc(F)cc1 [Compound 398] |
|  |  | < 500 nM | < 500 nM | N#Cc1cc(-c2c[nH]c3ncc(Cl)cc23)nc(N2CCNCC2)c1 [Compound 399] |
|  |  | 500 to 5000 nM | < 500 nM | C[C@@H](CC(=O)O)Nc1nc(-c2c[nH]c3ncc(Cl)cc23)ncc1F [Compound 401] |
|  |  | 500 to 5000 nM | 500 to 5000 nM | CNC(=O)C[C@H](C)Nc1nc(-c2c[nH]c3ncc(Cl)cc23)ncc1F [Compound 402] |
|  |  | 500 to 5000 nM | < 500 nM | CCOc1cnc(-c2c[nH]c3ncc(Cl)cc23)nc1N[C@@H](C)C(=O)NCC(F)(F)F [Compound 408] |
|  |  | < 500 nM | < 500 nM | O=Cc1cc(-c2c[nH]c3ncc(Cl)cc23)nc(N2CCNCC2)c1 [Compound 409] |
|  |  | 500 to 5000 nM | < 500 nM | CC(C)Oc1cnc(-c2c[nH]c3ncc(Cl)cc23)nc1N[C@@H](C)C(=O)NCC(F)(F)F [Compound 410] |
